This note sets out measurements from US20040152741A1, “Arylglycine derivatives and their use as glycine transport inhibitors” (NPS Allelix Corporation, priority 2002, published 2004).

In general, IC50 refers to the concentration that gives 50% inhibition.

For the assay, the target named is T1, GlyT-1 C (Homo sapiens, UniProt P48067).
T1 construct: expressed in transfected cells; QT-6 quail fibroblast cells are called preferred
T1 sequence (P48067 1-706): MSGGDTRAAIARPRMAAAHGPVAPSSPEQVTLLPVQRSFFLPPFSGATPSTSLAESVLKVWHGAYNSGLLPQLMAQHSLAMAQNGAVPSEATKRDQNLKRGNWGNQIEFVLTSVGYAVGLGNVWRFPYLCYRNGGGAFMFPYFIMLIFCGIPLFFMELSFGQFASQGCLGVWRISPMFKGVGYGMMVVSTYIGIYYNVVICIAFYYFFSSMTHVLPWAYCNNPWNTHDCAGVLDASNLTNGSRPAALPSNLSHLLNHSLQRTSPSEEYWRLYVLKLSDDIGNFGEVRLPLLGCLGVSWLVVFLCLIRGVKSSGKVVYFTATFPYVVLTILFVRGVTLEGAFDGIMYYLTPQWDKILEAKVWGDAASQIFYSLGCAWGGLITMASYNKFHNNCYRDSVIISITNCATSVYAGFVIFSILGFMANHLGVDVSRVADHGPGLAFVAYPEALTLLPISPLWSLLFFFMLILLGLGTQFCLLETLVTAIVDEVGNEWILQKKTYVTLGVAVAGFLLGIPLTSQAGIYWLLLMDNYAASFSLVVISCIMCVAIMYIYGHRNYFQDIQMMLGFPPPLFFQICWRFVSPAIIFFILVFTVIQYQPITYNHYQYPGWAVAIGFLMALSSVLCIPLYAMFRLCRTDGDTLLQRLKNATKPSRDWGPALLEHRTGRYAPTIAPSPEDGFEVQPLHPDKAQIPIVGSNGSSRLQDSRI
The experiment in a line: Assay of transport via GlyT-1: [3H]glycine uptake by stably transfected cells. The settings on record: cells stably transfected with GlyT-1 C; 50 nM [3H]glycine, 30 minutes at 37° C.; read-out: GlyT1 uptake IC50. The assay is classed as cell-based. The source says: For use in assaying for activity in inhibiting glycine transport, eukaryokic cells, preferably QT-6 cells derived from quail fibroblasts, have been transfected to express one of the three known variants of human GlyT-1, namely GlyT-1a, GlyT-1b or GlyT-1c, or human GlyT-2. The sequences of these GlyT-1 transporters are described in Kim et al., Molec. Pharm. 45: 608-617, 1994, excepting that the sequence encoding the extreme N-terminal of GlyT-1a was merely inferred from the corresponding rat-derived sequence. This N-terminal protein-encoding sequence has now been confirmed to correspond to that inferred by Kim et al. The sequence of the human GlyT-2 is described by Albert et al., U.S. Pat. No. 919,653 issued July 1999, which is incorporated herein by reference in its entirety. Suitable expression vectors include pRc/CMV (Invitrogen), Zap Express Vector (Stratagene Cloning Systems, LaJolla, Calif.; hereinafter “Stratagene”), pBk/CMV or pBk-RSV vectors (Stratagene), Bluescript II SK +/− Phagemid Vectors (Stratagene), LacSwitch (Stratagene), pMAM and pMAM neo (Clontech), among others. A suitable expression vector is capable of fostering expression of the included GlyT DNA in a suitable host cell, preferably a non-mammalian host cell, which can be eukaryotic, fungal, or prokaryotic. Such preferred host cells include amphibian, avian, fungal, insect, and reptilian cells.
This example illustrates a method for the measurement of glycine uptake by transfected cultured cells.
Cells stably transfected with GlyT-1 C (see Kim, et al., Molecular Pharmacology, 45, 1994:608-617) were washed twice with HEPES buffered saline (HBS). The cells were then incubated for 10 minutes at 37° C. with either (a) no potential competitor, (b) 10 mM non-radioactive glycine or (c) a concentration of a candidate drug. A range of concentrations of the candidate drug was used to generate data for calculating the concentration resulting in 50% of the effect (e.g., the IC50s, which are the concentrations of drug inhibiting glycine uptake by 50%). A solution was then added containing [^3H]glycine at a final concentration of 50 nM (17.5 Ci/mmol). The cells were then incubated with gentle shaking for another 30 minutes at 37° C., after which the reaction mixture was aspirated and washed three times with ice-cold HBS. The cells were lysed with scintillant and allowed to equilibrate. The radioactivity in the cells was determined using a scintillation counter. Data was compared between the same cells contacted or not contacted by a candidate agent, depending on the assay being conducted.
With `COc1ccc([N+](=O)[O-])cc1NC(=O)N[C@@H](C(=O)Nc1ccc(C)c(C)c1)c1ccccc1` [Experiment E32.5, (R)-2-[3-(2-methoxy-5-nitro-phenyl)-ureido]-N-(3,4-dimethylphenyl)-2-phenyl acetamide], the IC50 turned out to be 25.9 nM. As for `COc1ccc([N+](=O)[O-])cc1NC(=S)NC(C(=O)Nc1ccc2c(c1)CCC2)c1ccsc1` (stereo not shown) [Experiment E42.2], the figure is 131 nM; as for `COc1ccc([N+](=O)[O-])cc1NC(=S)NC(C(=O)Nc1ccc(C)c(C)c1)c1ccccc1` (stereo not shown) [Experiment E32.2, 2-[3-(2-methoxy-5-nitro-phenyl)-thioureido]-N-(3,4-dimethylphenyl)-2-phenyl acetamide], 334 nM; as for `COc1ccc([N+](=O)[O-])cc1NC(=S)N[C@@H](C(=O)Nc1ccc(C)c(C)c1)c1ccccc1` [E33.1*, (R)-2-[3-(2-methoxy-5-nitro-phenyl)-thioureido]-N-(3,4-dimethylphenyl)-2-phenyl acetamide], 96 nM.

On to `COc1ccc([N+](=O)[O-])cc1NC(=O)NC(C(=O)Nc1cccc(C(F)(F)F)c1)c1ccccc1` (stereo not shown) [Experiment E31.2, 2-[3-(2-methoxy-5-nitro-phenyl)-ureido]-N-(3-trifluoromethylphenyl)-2-phenyl acetamide], for which the IC50 is 202 nM. On to `COc1ccc([N+](=O)[O-])cc1NC(=O)N[C@@H](C(=O)Nc1ccc2c(c1)CCC2)c1ccccc1` [E29.1*], for which the concentration for half-maximal inhibition (IC50) stood at 71.9 nM.

For `COc1ccc([N+](=O)[O-])cc1NC(=O)NC(C(=O)Nc1ccc2c(c1)CCC2)c1ccsc1` (stereo not shown) [Experiment E42.1], the IC50 was 114 nM.
